Counter-ions that a name gives are not always drawn. One block for each molecule: values may come before it. Active and inactive are the calls of the source.
Key:
[1] = ATP-based viability loss in HepG2 cells – cell-based, CellTiter-Glo luminescence, dry powder, set 3, cytotoxicity control, dose response (AID 720594); format: functional
[2] = ATP-based viability loss in HEK293T cells – cell-based, CellTiter-Glo luminescence, dry powder, set 2, cytotoxicity control, dose response (AID 720595); format: functional; conditions: HEK293
[3] = biological target: T1, Methionyl-tRNA synthetase, putative (Trypanosoma brucei brucei, UniProt Q38C91); format: functional, Trypanosoma brucei brucei strain 927/4 GUTat10.1
T1 sequence (Q38C91 whole entry): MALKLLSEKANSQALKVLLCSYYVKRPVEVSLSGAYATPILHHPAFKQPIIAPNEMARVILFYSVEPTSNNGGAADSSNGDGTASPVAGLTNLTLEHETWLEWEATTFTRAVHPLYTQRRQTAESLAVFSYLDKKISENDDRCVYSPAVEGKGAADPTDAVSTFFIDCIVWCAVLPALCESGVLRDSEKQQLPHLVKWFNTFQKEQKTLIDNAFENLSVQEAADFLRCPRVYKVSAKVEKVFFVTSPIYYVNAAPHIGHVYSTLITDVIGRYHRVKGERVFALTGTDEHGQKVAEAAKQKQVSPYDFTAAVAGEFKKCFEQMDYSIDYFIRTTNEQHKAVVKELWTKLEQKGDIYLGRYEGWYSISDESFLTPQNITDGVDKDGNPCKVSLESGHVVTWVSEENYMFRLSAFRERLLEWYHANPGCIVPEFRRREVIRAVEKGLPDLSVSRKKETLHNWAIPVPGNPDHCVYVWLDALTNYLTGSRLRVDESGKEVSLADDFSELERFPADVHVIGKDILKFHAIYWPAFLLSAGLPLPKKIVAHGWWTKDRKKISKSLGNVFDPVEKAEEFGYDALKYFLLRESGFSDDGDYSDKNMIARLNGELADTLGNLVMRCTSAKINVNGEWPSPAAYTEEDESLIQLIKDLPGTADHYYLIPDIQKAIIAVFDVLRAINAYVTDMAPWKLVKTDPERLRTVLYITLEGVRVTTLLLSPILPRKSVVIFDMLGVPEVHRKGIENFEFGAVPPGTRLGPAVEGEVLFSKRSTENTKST

[4] = Counterscreen for inhibitors of Trypanosoma brucei methionyl tRNA synthetase (MetRS): Luminescence-based cell-based high throughput dose response assay to identify compounds that are cytotoxic to Jurkat human T lymphocyte cells.; format: functional
[5] = biological target: T1, Methionyl-tRNA synthetase, putative; format: functional, Trypanosoma brucei brucei strain 927/4 GUTat10.1; remark: listed apart in the source
[6] = Late stage counterscreen for inhibitors of Trypanosoma brucei methionyl tRNA synthetase (MetRS): Luminescence-based cell-based high throughput dose response assay to identify compounds that are cytotoxic to Jurkat human T lymphocyte cells.; format: functional
[7] = biological target: T2, Corticotropin-releasing factor receptor 2/Corticotropin-releasing factor-binding protein (Homo sapiens, UniProt P24387+Q13324); assay: activators of CRF receptor 2 with binding protein – uHTS hits, confirmation (AID 602473); format: functional; conditions: read-out: EC50_Mean
T2 sequence (Q13324 whole entry): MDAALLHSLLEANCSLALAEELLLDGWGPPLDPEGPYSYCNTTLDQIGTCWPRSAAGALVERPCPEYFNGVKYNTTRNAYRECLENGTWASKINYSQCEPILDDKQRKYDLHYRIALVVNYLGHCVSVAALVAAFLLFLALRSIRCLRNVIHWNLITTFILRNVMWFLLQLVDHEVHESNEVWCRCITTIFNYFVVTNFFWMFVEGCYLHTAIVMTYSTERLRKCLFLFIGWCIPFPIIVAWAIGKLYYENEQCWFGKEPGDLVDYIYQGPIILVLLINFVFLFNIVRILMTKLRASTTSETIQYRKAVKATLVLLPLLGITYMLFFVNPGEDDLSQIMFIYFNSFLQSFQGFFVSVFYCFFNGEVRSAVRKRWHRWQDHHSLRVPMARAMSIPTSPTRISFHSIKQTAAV
T2 sequence (P24387 whole entry): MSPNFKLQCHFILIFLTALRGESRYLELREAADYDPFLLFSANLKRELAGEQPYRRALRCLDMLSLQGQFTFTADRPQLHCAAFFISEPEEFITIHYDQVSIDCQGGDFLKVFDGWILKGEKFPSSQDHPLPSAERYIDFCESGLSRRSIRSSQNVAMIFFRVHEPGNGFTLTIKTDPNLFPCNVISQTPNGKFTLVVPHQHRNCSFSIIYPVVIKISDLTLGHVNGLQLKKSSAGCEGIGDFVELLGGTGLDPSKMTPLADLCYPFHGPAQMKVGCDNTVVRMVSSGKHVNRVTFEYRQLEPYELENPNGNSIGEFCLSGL

[8] = viability loss in HepG2 liver cells – cell-based, ATP luminescence, cherry-pick, set 6, cytotoxicity control, dose response (AID 1053125); format: functional
cells [9] = conditions: A549
[10] = P. falciparum Dd2 growth inhibitors, dose response, SYBR Green, cherry-picked samples (AID 1159567); format: functional, cell-based
[11] = toxicity to human hepatoma HepG2 cells – cell-based, cherry-picked samples, cytotoxicity control, dose response (AID 1159577); format: functional
[12] = biological target: G-protein coupled receptor 55 (Homo sapiens, UniProt Q9Y2T6); assay: selective activators of receptor GPR55 – imaging, U2OS cells, beta-arrestin-GFP redistribution, primary screen (AID 1961); format: functional
Protein skinhead-1 = biological target: T3, Protein skinhead-1 (Caenorhabditis elegans, UniProt P34707); format: functional
T3 sequence (P34707 whole entry): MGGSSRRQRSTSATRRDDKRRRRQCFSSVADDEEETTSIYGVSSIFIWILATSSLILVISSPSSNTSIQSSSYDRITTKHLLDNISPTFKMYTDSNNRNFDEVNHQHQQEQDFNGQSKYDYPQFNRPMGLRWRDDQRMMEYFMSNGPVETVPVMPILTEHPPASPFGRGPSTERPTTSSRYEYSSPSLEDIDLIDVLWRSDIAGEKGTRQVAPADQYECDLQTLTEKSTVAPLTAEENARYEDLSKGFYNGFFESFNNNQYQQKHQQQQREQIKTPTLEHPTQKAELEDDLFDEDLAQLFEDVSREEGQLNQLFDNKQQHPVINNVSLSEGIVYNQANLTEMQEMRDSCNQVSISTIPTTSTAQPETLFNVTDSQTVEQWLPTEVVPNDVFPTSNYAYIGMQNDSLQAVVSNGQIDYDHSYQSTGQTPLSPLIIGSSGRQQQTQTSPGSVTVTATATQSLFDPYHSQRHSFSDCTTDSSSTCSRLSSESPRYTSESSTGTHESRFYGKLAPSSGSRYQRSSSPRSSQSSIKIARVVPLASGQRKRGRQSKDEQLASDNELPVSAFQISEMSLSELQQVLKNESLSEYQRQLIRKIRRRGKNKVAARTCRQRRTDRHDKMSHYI

[13] = Luminescence-based cell-based high throughput dose response assay to identify activators of the DAF-12 from the parasite S. stercoralis (ssDAF-12).; format: functional
[14] = biological target: T4, Oxysterols receptor LXR-beta (Homo sapiens, UniProt P55055); assay: LXR agonists, Gal4 luciferase reporter, dose response, counter-screen for ssDAF-12 agonist project, cell-based, luminescence, HEK293, S. stercoralis campaign (AID 720737); format: functional; conditions: read-out: IC50 (the source's name)
T4 sequence (P55055 whole entry): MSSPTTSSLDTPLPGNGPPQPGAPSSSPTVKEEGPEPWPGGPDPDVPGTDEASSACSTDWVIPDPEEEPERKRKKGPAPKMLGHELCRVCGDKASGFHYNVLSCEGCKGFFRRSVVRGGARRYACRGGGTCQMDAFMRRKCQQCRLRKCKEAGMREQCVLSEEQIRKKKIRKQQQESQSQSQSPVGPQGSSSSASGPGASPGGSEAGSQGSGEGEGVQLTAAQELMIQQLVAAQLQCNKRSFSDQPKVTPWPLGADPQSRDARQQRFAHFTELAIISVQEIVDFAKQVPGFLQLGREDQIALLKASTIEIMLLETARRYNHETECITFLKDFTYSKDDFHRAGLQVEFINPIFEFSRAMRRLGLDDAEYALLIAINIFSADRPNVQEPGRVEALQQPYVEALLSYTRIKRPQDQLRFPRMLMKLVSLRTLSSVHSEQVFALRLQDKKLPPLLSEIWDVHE

[15] = biological target: T4, Oxysterols receptor LXR-beta; format: functional, cell-based
[16] = IC50 of insulin release inhibition, rat insulinoma INS-1E line, 5 mM glucose, cell-based (AID 1117331); format: functional
cells [17] = format: functional, cell-based; conditions: INS-1E
[18] = antimalarial activity against erythrocytic parasites – NF54 strain, plate reader, dry powder, dose response (AID 651889); format: functional, cell-based
[19] = host muscle cell viability loss – plate reader, dry powder, counter-screen for T. cruzi inhibitor project, dose response (AID 651895); format: functional, cell-based
[20] = T. cruzi growth inhibition in host cells, dose response, cell-based, plate reader, dry powder, set 2 (AID 652275); format: functional
[21] = Trypanosoma cruzi replication inhibitors in host cells – cell-based, plate reader, dry powder samples, dose response (AID 651845); format: functional
[22] = anti-trypanosomal activity in BESM host cells – imaging, CA-I/72 strain, bovine embryo skeletal muscle, dry powder, dose response (AID 651885); format: functional, cell-based
[23] = antileishmanial activity on axenic amastigotes – plate reader, dry powder, dose response (AID 651892); format: functional, cell-based
[24] = intracellular Chagas parasite inhibition in myoblasts – Tulahuen strain, L-6 host cells, dry powder, dose response (AID 651890); format: functional, cell-based
[25] = African trypanosome bloodstream form growth inhibition – STIB900 strain, plate reader, dry powder, dose response (AID 651894); format: functional, cell-based
HeLa = assay: viability loss in HeLa cells – cell-based, ATP luminescence, cherry-pick samples, cytotoxicity control, dose response (AID 687004); format: functional; conditions: Homo sapiens
HEK293 = assay: viability loss in HEK293T cells – cell-based, ATP luminescence, cherry-pick samples, cytotoxicity control, dose response (AID 687005); format: functional; conditions: Homo sapiens;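 further: cells exposed to compound for 48 hours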
[26] = HEK293 Cytotoxicity Assay Measured in Cell-Based System Using Plate Reader - 7071-01_Inhibitor_Dose_CherryPick_Activity_Set2.; format: functional
Paired box protein Pax-8 = Paired box protein Pax-8 (Homo sapiens, UniProt Q06710); assay: PAX8 transcriptional activity inhibition in RMG-I – RMG-I cells, luciferase, cherry-pick, dose response (AID 687027); format: functional, cell-based;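 further: luciferase reporter driven by Pax8 target thyroperoxidase promoter measured by SteadyGlo luminescence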
[27] = toxicity toward immortalized ovarian surface epithelium – cell-based, plate reader, dry powder samples, cytotoxicity control for PAX8 inhibitor project, dose response (AID 743045); format: functional
[28] = A2780 cell killing – plate reader, dry powder samples, cytotoxicity control, dose response (AID 743046); format: functional, cell-based
[29] = OVCAR-3 cell viability loss – plate reader, dry powder samples, PAX8 inhibitor project, dose response (AID 743044); format: functional, cell-based
[30] = IGROV1 cell killing – plate reader, dry powder samples, PAX8 inhibitor project, dose response (AID 743043); format: functional, cell-based; conditions: IGROV-1
[31] = Late stage assay provider results from the probe development effort to identify inhibitors of the Plasmodium falciparum M18 Aspartyl Aminopeptidase (M18AAP): radiolabel-based cell-based dose response assay to identify compounds that inhibit P. falciparum growth in RBCs, Set 2..; format: functional
[32] = biological target: Photoreceptor-specific nuclear receptor (Homo sapiens, UniProt Q9Y5X4); format: functional, cell-based;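 further: CHO-S cells with Gal4-NCOR and VP16-NR2E3 two-hybrid luciferase reporter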
[33] = biological target: COUP transcription factor 2 (Homo sapiens, UniProt P24468); assay: Luminescence-based cell-based high throughput dose response assay to identify inhibitors of COUP-TFII (NR2F2).; format: functional;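 further: HEK293 cells transiently cotransfected with COUP-TFII expression vector and reporter; luciferase reporter luminescence driven by COUP-TFII from the pX2-168 reporter plasmid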
Chain of COUP transcription factor 2 (P24468 whole entry): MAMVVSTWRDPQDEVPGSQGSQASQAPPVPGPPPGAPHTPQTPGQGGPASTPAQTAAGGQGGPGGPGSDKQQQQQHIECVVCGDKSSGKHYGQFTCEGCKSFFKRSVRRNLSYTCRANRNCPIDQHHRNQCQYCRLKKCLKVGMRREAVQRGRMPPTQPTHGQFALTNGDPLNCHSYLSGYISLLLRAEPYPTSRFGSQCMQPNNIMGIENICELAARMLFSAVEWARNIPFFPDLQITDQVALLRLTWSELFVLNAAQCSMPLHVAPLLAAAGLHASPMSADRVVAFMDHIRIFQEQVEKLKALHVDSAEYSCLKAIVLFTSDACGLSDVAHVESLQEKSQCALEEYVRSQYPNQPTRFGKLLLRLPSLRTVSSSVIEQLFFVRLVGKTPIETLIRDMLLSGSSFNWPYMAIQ

Chain of G-protein coupled receptor 55 (Q9Y2T6 whole entry): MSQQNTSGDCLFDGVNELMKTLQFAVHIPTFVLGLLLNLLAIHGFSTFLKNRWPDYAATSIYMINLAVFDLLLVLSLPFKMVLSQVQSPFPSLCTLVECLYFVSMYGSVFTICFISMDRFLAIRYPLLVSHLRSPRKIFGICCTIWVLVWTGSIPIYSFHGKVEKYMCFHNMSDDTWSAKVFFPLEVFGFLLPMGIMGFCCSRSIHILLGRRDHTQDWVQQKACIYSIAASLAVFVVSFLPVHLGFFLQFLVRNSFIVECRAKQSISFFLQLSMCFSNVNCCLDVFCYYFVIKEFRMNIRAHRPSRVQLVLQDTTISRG
Chain of Photoreceptor-specific nuclear receptor (Q9Y5X4 whole entry, the tested form may be a part): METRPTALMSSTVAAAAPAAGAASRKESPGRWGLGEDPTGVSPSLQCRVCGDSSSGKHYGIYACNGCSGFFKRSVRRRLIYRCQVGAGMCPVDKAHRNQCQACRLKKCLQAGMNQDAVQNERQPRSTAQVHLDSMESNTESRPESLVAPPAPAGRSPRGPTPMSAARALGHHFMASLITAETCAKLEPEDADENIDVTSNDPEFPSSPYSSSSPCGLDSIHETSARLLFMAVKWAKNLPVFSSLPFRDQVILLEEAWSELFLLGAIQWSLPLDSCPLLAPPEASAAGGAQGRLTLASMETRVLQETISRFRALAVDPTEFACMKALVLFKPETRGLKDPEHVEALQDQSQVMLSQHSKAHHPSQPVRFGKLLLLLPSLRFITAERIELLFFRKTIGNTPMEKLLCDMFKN
Chain of Paired box protein Pax-8 (Q06710 whole entry): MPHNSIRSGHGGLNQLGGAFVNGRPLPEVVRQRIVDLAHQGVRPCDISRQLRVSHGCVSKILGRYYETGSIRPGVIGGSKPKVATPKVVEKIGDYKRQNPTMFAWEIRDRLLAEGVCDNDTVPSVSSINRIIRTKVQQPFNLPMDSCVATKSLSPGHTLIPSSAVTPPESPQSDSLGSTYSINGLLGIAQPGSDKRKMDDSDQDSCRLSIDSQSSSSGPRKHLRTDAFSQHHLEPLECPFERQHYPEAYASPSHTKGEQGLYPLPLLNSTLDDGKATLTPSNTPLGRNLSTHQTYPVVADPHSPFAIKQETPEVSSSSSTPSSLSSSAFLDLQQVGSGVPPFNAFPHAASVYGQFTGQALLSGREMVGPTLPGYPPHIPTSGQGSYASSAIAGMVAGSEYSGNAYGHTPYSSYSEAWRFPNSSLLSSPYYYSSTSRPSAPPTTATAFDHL

SMILES: CC1CCN(S(=O)(=O)c2ccc(C(=O)Nc3nnc(C4=COCCO4)o3)cc2)CC1
AC50 [1]: > 52 µM (inactive) | AC50 [2]: 48.7 µM (active)

SMILES: O=C(Nc1ccc(F)c(Cl)c1)C1CC(=O)n2c(nc3ccccc32)N1 (configuration not stated)
IC50 [3]: 2.34 µM (active) | IC50 [4]: 83.3 µM (inactive) | IC50 [5]: 1.47 µM (active) | IC50 [6]: > 83.3 µM (inactive)

SMILES: CCCCCCc1cc2cc(S(=O)(=O)c3ccc(F)cc3)c(=O)oc2cc1O
EC50 [7]: > 53 µM (inactive) | AC50 [8]: 50.4 µM (active) | AC50 (cells [9]): 42.1 µM (active)

SMILES: OC[C@H]1Nc2ccc(-c3cccc(F)c3)cc2[C@@H]2[C@H]1CCN2Cc1ccc(F)cc1
AC50 [10]: 4.27 µM (active) | AC50 [11]: > 39 µM (inactive)

SMILES: N=C(NOC(=O)c1cc(Br)ccc1Cl)c1ccccn1
EC50 [12]: 31.4 µM (inactive) | IC50 (Protein skinhead-1): 41.8 µM (active) | IC50 [13]: > 67.5 µM (inactive) | EC50 [14]: > 67.5 µM (inactive) | EC50 [15]: > 67.5 µM (inactive)

SMILES: CN(C)CCC[C@@]1(c2ccc(F)cc2)OCc2cc(C#N)ccc21 [ESCITALOPRAM OXALATE]
IC50 [16]: 5.45 µM (inactive) | IC50 (cells [17]): > 33.3 µM (inactive)

SMILES: C[C@@H]1CN([C@@H](C)CO)C(=O)c2cccc(NC(=O)c3ccncc3)c2O[C@@H]1CN(C)Cc1ccc(Oc2ccccc2)cc1
IC50 [18]: 0.873 µM (inactive) | IC50 [19]: 47.6 µM (inactive) | AC50 [20]: 0.276 µM (active) | AC50 [21]: 0.506 µM (active) | IC50 [22]: 0.55 µM (active) | IC50 [23]: > 100 µM (inactive) | IC50 [24]: 0.666 µM (active) | IC50 [25]: 1.02 µM (inactive)

SMILES: COc1ccc(CN(C)C[C@H]2Oc3ccc(NC(=O)Nc4ccc(F)cc4)cc3CC(=O)N([C@@H](C)CO)C[C@@H]2C)cc1
AC50 (HeLa): > 52 µM (inactive) | AC50 (HEK293): 26.3 µM (active) | AC50 [26]: 26.3 µM (active)

SMILES: C[C@@H]1CN([C@H](C)CO)C(=O)c2cc(NC(=O)Nc3ccc(C(F)(F)F)cc3)ccc2O[C@@H](C)CCCCO[C@@H]1CN(C)Cc1ccncc1
AC50 (Paired box protein Pax-8): 4.21 µM (active) | AC50 [27]: 56.4 µM (active) | AC50 [28]: 56.9 µM (active) | AC50 [29]: 14.8 µM (active) | AC50 [30]: 41.8 µM (active)

SMILES: COc1ccc(CCNC2CCN(Cc3ccccc3)CC2)cc1OC
IC50 [31]: 6.9 µM (active)

IC50 [32]: 1.52 µM (active) | IC50 [33]: 10 µM (inactive)
SMILES: OC[C@@H]1CN(Cc2ccc(-c3ccccc3)cc2)C[C@H](n2cnc3c(NCc4ccncc4)ncnc32)O1

— ChEMBL document CHEMBL1201862, “PubChem BioAssay data set” (2004)
